In patent publication US12280065B2, “Pharmaceutical compounds and therapeutic methods” (RUTGERS, THE STATE UNIVERSITY OF NEW JERSEY, priority 2019, dated 2025):

Columns and labels:
mutant p53-R175H protein = target: T1, mutant p53-R175H protein (Homo sapiens, UniProt P04637, R175H); assay: Mutant p53 refolding assay (immunofluorescent staining with PAB1620 and PAB240); type: cell-based; details: p53-R175H cells (e.g. TOV 112D), treated 6 hours; data not shown
T1 construct: endogenous in cells; host or cells: TOV 112D (p53-R175H cells)
Procedure: An immunofluorescent staining using p53 conformation specific antibodies was used to determine if a test compound could induce the mutant p53 protein refolding to a wildtype conformation. The p53-R175H cells (e.g. TOV 112D) cultured in DMEM+10% FBS were treated with a test compound for 6 hours, then fixed and stained with the antibodies PAB1620 (recognizing WT conformation) and PAB240 (recognizing misfolded/unfolded conformation) respectively.

[1] = Colonogenic assay for long term cell killing; type: cell-based; details: ZN-6 at 10 nM; exposure up to 60 minutes, washout, crystal violet staining after 14-day incubation
Procedure: Cell growth inhibition for 3 days is an effect for a short term treatment. A colonogenic assay was used for the long term cell killing effect. One thousand cells were seeded in each well in 6-well plates. On the second day the cells were exposed with the dilutions of the compound for up to 60 minutes. After that the compound was washed away and the cells were refed with fresh medium without the compound. The colonies were visualized by crystal violet staining after 14-day incubation.

[2] = tested on: human tumor cell lines with different p53 status; assay: Cell growth inhibition assay (Calcein AM); type: cell-based; details: for EC50: cell growth, Calcein AM, incubation for 3 days, cell line not stated; for Fold (ZN-1/compound) / Fold (compound/ZN-1): ratio of EC50s
Procedure: Cell growth inhibition assay using human tumor cell lines with different p53 status (wildtype, null, p53-R175H or other zinc binding deficient mutants) were employed to determine if a test compound functions as a zinc metallochaperone to restore wildtype p53 functions. The cell growth inhibition assay was performed by Calcein AM assay (Trevigen). Five thousand cells per well were cultured in 96-well plate to reach the 50% confluence on the second day when treated with serial dilutions of the compounds. Growth was measured by Calcein AM assay (Trevigen) and Victor Plate reader instrument (PerkinElmer) after incubation for 3 days.

[3] = tested on: p53 target genes PUMA and GDF15 in p53-R175H cells; assay: Mutant p53 transcriptional reactivation assay by qRT-PCR of p53 target genes; type: cell-based
Procedure: p53 is a transcription factor. The reactivation of mutant p53 can be detected by regulation of the p53 target genes using quantitative reverse transcription PCR (qRT-PCR). The p53-R175H cells were treated with the compound for 6 hours and 24 hours followed by qRT-PCR to analyze the gene expression regulation. The two p53 target genes in this assay were PUMA and GDF15. For ZN-6, the expression levels were induced for 18-fold and 53-fold respectively (in parental cells). To double check the p53 dependence of the effect, the same assay applied to the p53 knockout cell line (KO, done by CRISPR-cas9 technology) and the p53 transient knockdown cells (KD, using siRNA knockdown). The PUMA induction was only 2× and 5× and GDF15 induction was only 1× and 5× in KO and KD cells, respectively (See FIG. 1).

[4] = Solubility of zinc complexes; type: physicochemical
[5] = p53 knockout cell line (KO, CRISPR-cas9)
[6] = p53 transient knockdown cells (KD, siRNA)
[7] = parental p53-R175H cells, 6 hours and 24 hours treatment

Row | SMILES | Refolding of mutant p53 to wildtype conformation (mutant p53-R175H protein) | Earliest exposure time that showed effect on colony formation [1] | EC50 [2] | Fold (ZN-1/compound) [2] | Fold (compound/ZN-1) [2] | GDF15 induction [3, 5] | PUMA induction [3, 5] | GDF15 induction [3, 6] | PUMA induction [3, 6] | GDF15 expression induction [3, 7] | PUMA expression induction [3, 7] | Solubility in 5% EtOH, 4% Tween80, 4% Kolliphor, 87% water ([4]; 5% EtOH, 4% Tween80, 4% Kolliphor, 87% water) | Solubility in 10% EtOH, 10% captisol, 80% water ([4]; 10% EtOH, 10% captisol, 80% water) | Solubility in 50% EtOH 50% H2O ([4]; 50% EtOH, 50% H2O) | Solubility in DMSO [4] | Solubility in EtOH [4]
1 | C/C(=N\NC(=S)N1CCC1)c1ccccn1 [ZMC1, reference compound] | change the mutant p53-R175H protein from mutant conformation to WT conformation | 15 min | – | – | – | – | – | – | – | – | – | – | – | – | – | –
2 | COCCOCc1ccnc(/C(C)=N/NC(=S)N(C)C)c1.COCCOCc1ccnc(/C(C)=N/NC(=S)N(C)C)c1.[Zn] [ZN-12, Zn[(E)-2-(1-(4-((2-methoxyethoxy)methyl)pyridin-2-yl)ethylidene)-N,N-dimethylhydrazine-1-carbothioamide]2] | – | – | 2.52 nM | 1.1 | 0.9 | – | – | – | – | – | – | – | – | – | – | –
3 | COCCOCc1cccnc1/C(C)=N/NC(=S)N(C)C.COCCOCc1cccnc1/C(C)=N/NC(=S)N(C)C.[Zn] [ZN-6, Zn[(E)-2-(1-(3-((2-methoxyethoxy)methyl)pyridin-2-yl)ethylidene)-N,N-dimethylhydrazine-1-carbothioamide]2] | change the mutant p53-R175H protein from mutant conformation to WT conformation | 15 min | 5.41 nM | 0.5 | 2.0 | 1 × | 2 × | 5 × | 5 × | 53 fold | 18 fold | 1000 µg/mL | 1000 µg/mL | >5000 µg/mL | >10000 µg/mL | >10000 µg/mL
4 | C/C(=N\NC(=S)N(C)C)c1ncccc1CN1CCOCC1.C/C(=N\NC(=S)N(C)C)c1ncccc1CN1CCOCC1.[Zn] [ZN-7, Zn[(E)-N,N-dimethyl-2-(1-(3-(morpholinomethyl)pyridin-2-yl)ethylidene)hydrazine-1-carbothioamide]2] | – | – | 8.36 nM | 0.3 | 3.1 | – | – | – | – | – | – | – | – | – | >5000 µg/mL | 1000 to 2000 µg/mL
